Experiments:
[1] = tested on: Phorbol Ester-Induced Mouse Ear Swelling Model; test: Phorbol ester-induced mouse ear swelling model; format: in vivo, SPF ICR mice; details: 6 h after modeling; for Right ear (ear thickness): phorbol ester 5 μg/20 μL/ear, drug 20 μL/ear 30 min before and 15 min after modeling, thickness gauge; for Swelling degree: right minus left ear thickness, drug 20 μL/ear in DMSO 30 min before and 15 min after modeling; for Inhibition rate of the swelling: vs. model group, ear thickness
Protocol: 1. Therapeutic Effects of the Compound Pharmaceutical Composition of the Disclosure on a Phorbol Ester-Induced Mouse Ear Swelling Model
SPF ICR mice, male, 18-22 g, randomly divided into compound groups with different compound ratios and a model group according to body weight, 10 mice for each group. The test drug is dissolved in a 20 μL solvent of DMSO. The specific group numbers are as follows:
(1) Compound groups with different compound ratios
Tofacitinib:crisaborole=2 mg:2 mg/20 μL (dose ratio=1:1; group a); tofacitinib:crisaborole=2 mg:1 mg/20 μL (dose ratio=2:1; group b); tofacitinib:crisaborole=2 mg:0.5 mg/20 μL (dose ratio=4:1; group c); tofacitinib:crisaborole=2 mg:0.25 mg/20 μL (dose ratio=8:1; group d); tofacitinib:crisaborole=2 mg:0.2 mg/20 μL (dose ratio=10:1; group e); tofacitinib:crisaborole=2 mg:0.125 mg/20 μL (dose ratio=16:1; group f); tofacitinib:crisaborole=1 mg: 2 mg/20 μL (dose ratio=1:2; group g); tofacitinib:crisaborole=0.5 mg:2 mg/20 μL (dose ratio=1:4; group h); tofacitinib:crisaborole=0.25 mg:2 mg/20 μL (dose ratio=1:8; group i); tofacitinib:crisaborole=0.2 mg:2 mg/20 μL (dose ratio=1:10; group j); tofacitinib:crisaborole=0.125 mg:2 mg/20 μL (dose ratio=1:16; group k). (2) Model Group (3) Crisaborole (4 mg/20 ul) (4) Tofacitinib (4 mg/20 ul) (5) Blank group: applying with 20 μL DMSO as a solvent for comparison. Experimental Method:
For the mice of each group, 20 ul (5 μg/20 μL/ear) of phorbol ester is applied to the front and back of the right ear for modeling, and 20 μL solvent medium (acetone) is applied to the left ear; except for the model group, the right ears of the mice in each administration group are applied with corresponding drugs 20 μL/ear 30 minutes before and 15 minutes after modeling, respectively. 6 h after modeling, the ear swelling is measured with a thickness gauge as an indicator of inflammation; then, the animals are sacrificed, the ears are cut and punched with a 6 mm punch, the ear pieces are weighed, and the swelling degree (weight) is calculated.

atopic dermatitis = details: topical 2% tofacitinib, clinical phase II; cited from earlier work

SMILES	Right ear (ear thickness) [1]	Swelling degree [1]	Inhibition rate of the swelling [1] [%]	itching symptoms in patients (atopic dermatitis)	therapeutic effect on atopic dermatitis (atopic dermatitis)
C[C@@H]1CCN(C(=O)CC#N)C[C@@H]1N(C)c1ncnc2[nH]ccc12 [Tofacitinib, tofacitinib]	41.6 ± 3.4 10^−2 mm	12.4 ± 3.2^ΔΔ 10^−2 mm	34.7	can improve itching symptoms in patients	a certain therapeutic effect on atopic dermatitis
N#Cc1ccc(Oc2ccc3c(c2)COB3O)cc1 [Crisaborole, crisaborole]	43.0 ± 3.7 10^−2 mm	13.3 ± 3.4^Δ 10^−2 mm	30.0	–	–
